Key:
[1] = Oral PK in rats: plasma concentrations of released oxycodone by LC-MS/MS
[2] = Intranasal PK in rats: plasma concentrations of released oxymorphone by LC-MS/MS
[3] = Tamper resistance: percent of OC released under tampering conditions, LC-MS/MS; assay type: physicochemical; conditions: RT
Description: Effective abuse deterrent forms of drugs of abuse can also be resistant to chemical tampering. The prodrugs in the present technology also impart this characteristic. Several common tampering scenarios were employed and percent of OC released were determined by liquid chromatography with tandem mass spectrometry (LC-MS/MS). The results as shown in Table 7 indicated a very high degree of tamper resistance in the example OC prodrugs, releasing little to no OC.

[4] = Intranasal PK in rats (Table 4); conditions: title: oxymorphone released (released oxycodone)
[5] = Oral PK in rats: plasma concentrations of oxymorphone by LC-MS/MS; conditions: oxymorphone released
[6] = conjugate equivalent to 2 mg/kg freebase oxycodone
[7] = Table 6, equivalent to 2 mg/kg freebase oxycodone
[8] = Table 6, relative to oxycodone (OC)
[9] = equivalent to 2 mg/kg freebase oxycodone

Molecule COc1ccc2c3c1O[C@H]1C(OC(=O)c4ccc(O)cc4)=CC[C@@]4(O)[C@@H](C2)N(C)CC[C@]314 [Conjugate 4-OH-Bz-OC] has an AUC [1, 6] of 53.5 ng·h/mL, a Cmax [1, 6] of 35.4 ng/mL and a tmax [1, 6] of 45 min. The “%-AUC of OC” value ([1]; relative to oxycodone (OC)) was 58%, the “%-Cmax of OC” value ([1]; relative to oxycodone (OC)) was 69% and the “%-tmax of OC” value ([1]; relative to oxycodone (OC)) was 188%. It also gave an AUC [2, 7] of 11.8 ng·h/mL, a Cmax [2, 7] of 19.0 ng/mL and a tmax [2, 7] of 27 min. The “%-AUC of OC” value [2, 8] was 58%, the “%-Cmax of OC” value [2, 8] was 61% and the “%-tmax of OC” value [2, 8] was 90%. For the same molecule, the “percent of OC released” value ([3]; 1N HCl, 1 hour) was 0%, the “percent of OC released” value ([3]; 5% Bicarbonate, 1 hour) was 0% and the “percent of OC released” value ([3]; Water, 1 hour) was 0%. For the same molecule, the “percent of OC released” value ([3]; Water, 24 hours) was 0%, the Cmax [4, 9] was 759.2 ng/mL and the tmax [4, 9] was 4.98 min. The “%-Cmax of OC” value ([4]; relative to oxycodone (OC)) was 41%, the “%-tmax of OC” value ([4]; relative to oxycodone (OC)) was 100% and the AUC [5, 6] was 3.3 ng·h/mL. The Cmax [5, 6] was 2.1 ng/mL, the tmax [5, 6] was 15 min and the “%-AUC of OC” value ([5]; relative to oxycodone (OC)) was 55%. The “%-Cmax of OC” value ([5]; relative to oxycodone (OC)) was 49% and the “%-tmax of OC” value ([5]; relative to oxycodone (OC)) was 100%.

— patent publication US10544153B2, “Benzoic acid, benzoic acid derivatives and heteroaryl carboxylic acid conjugates of oxycodone, prodrugs, methods of making and use thereof” (KemPharm, Inc., priority 2014, dated 2020)
